Series [1] can be described thus: Metabolism stability test. The format is in vitro ADME. Conditions: human liver microsomes, 30 minutes, 37° C., NADPH, 0.5 μmol/L of test compound. The protocol: Using commercially available pooled human hepatic microsomes, the compound of the present invention was reacted for a constant time, a remaining rate was calculated by comparing a reacted sample and an unreacted sample, thereby, a degree of metabolism of the compound of the present invention in liver was assessed.
A reaction was performed (oxidative reaction) at 37° C. for 0 minute or 30 minutes in the presence of 1 mmol/L NADPH in 0.2 mL of a buffer (50 mmol/L Tris-HCl pH 7.4, 150 mmol/L potassium chloride, 10 mmol/L magnesium chloride) containing 0.5 mg protein/mL of human liver microsomes. After the reaction, 50 μL of the reaction solution was added to 100 μL of a methanol/acetonitrile=1/1 (v/v) solution, mixed and centrifuged at 3000 rpm for 15 minutes. The compound of the present invention in the supernatant was quantified by LC/MS/MS, and a remaining amount of the compound of the present invention after the reaction was calculated, letting a compound amount at 0 minute reaction time to be 100%. (Result) Remaining rate was shown at 0.5 μmol/L of test compound.
Background: Liver microsomes are a subcellular fraction often used to study metabolism.

Series [2] is described as follows: Solubility test (1% DMSO addition, pH 6.8 artificial intestinal juice). It is filed as physicochemical. Particulars: pH 6.8 artificial intestinal juice with 1% DMSO, kinetic from dmso stock, 16 hours at 25° C. The protocol: The solubility of the compound of the present invention was determined under 1% DMSO addition conditions. 10 mmol/L solution of the compound was prepared with DMSO, and 6 μL of the solution of the compound of the present invention was added to 594 μL of pH 6.8 artificial intestinal juice (118 mL of 0.2 mol/L NaOH test solution and water were added to 250 mL of 0.2 mol/L potassium dihydrogen phosphate test solution to reach 1000 mL). The mixture was left standing for 16 hours at 25° C., and the mixture was vacuum-filtered. The filtrate was two-fold diluted with methanol/water=1/1 (V/V), and the compound concentration in the filtrate was measured with HPLC or LC/MS/MS by the absolute calibration method.

The target in another series is hERG channel (IKr) (Homo sapiens (Human), UniProt Q12809). Kind of series: hERG test. The format is cell-based. Particulars: pH 7.4, CHO cells expressing hERG channel, 10 μmol/L of test compound, read-out: % inhibition of tail peak current (IKr). From the text:
For the purpose of assessing risk of an electrocardiogram QT interval prolongation of the compound of the present invention, effects of the compound of the present invention on delayed rectifier K^+ current (IKr), which plays an important role in the ventricular repolarization process, was studied using CHO cells expressing human ether-a-go-go related gene (hERG) channel.
After a cell was retained at a membrane potential of −80 mV by whole cell patch clamp method using an automated patch clamp system (QPatch; Sophion BIoscience A/S), IKr induced by application of a leak potential of −50 mV followed by depolarization pulse stimulation at +20 mV for 2 seconds and, further, repolarization pulse stimulation at −50 mV for 2 seconds, was recorded. […] From the recording IKr, an absolute value of the tail peak current was measured based on the current value at the resting membrane potential using analysis software (Falster Patch; Sophion Bioscience A/S). Further, the % inhibition of tail peak current for the compound of the present invention relative to the tail peak current after application of the vehicle is calculated to assess influence of the compound of the present invention on IKr. (Result) % inhibition was shown at 10 μmol/L of test compound.
A general note: Block of hERG is tested as a sign of cardiac risk.

The next series deals with recombinant human MGAT2 (Homo sapiens (Human), UniProt Q3SYC2). Kind of series: Measurement of human MGAT2 inhibitory activity. The format is biochemical. Particulars: read-out: IC50 (concentration exhibiting 50% enzyme inhibition), Table 53. Summed up: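 Membrane fraction of Sf9 cells expressing N-terminally Flag-tagged full-length human MGAT2, incubated 1 h at room temperature in 100 mmol/L phosphate pH 7.4 with 2 mmol/L DTT. The substrate solution held 30 μmol/L 2-oleoylglycerol and 10 μmol/L oleoyl-CoA. Diolein product was quantified by RapidFire ESI Q-TOF MS against diolein-d5 internal standard; % inhibition was set relative to with/without-enzyme controls.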

Series [3] in a line: BA test (oral absorption). The format is in vivo. Particulars: plasma; oral vs intravenous administration, mice or SD rats. The protocol: Materials and Methods for Experiments to Evaluate Oral Absorption
(1) Animals: the mice or SD rats were used.
(2) Breeding conditions: the mice or SD rats were allowed to freely take solid food and sterilized tap water.
(3) Setting of dosage and grouping: Oral administration and intravenous administration were performed with a predetermined dosage. Grouping was set as below. (dosage changed per compound)
Oral administration: 1 to 30 mg/kg (n=2 to 3)
Intravenous administration: 0.5 to 10 mg/kg (n=2 to 3)
(4) Preparation of administration solution: Oral administration was performed in the form of a suspension or a solution. Intravenous administration was performed after solubilization.
(5) Routes of administration: Oral administration was performed mandatory into the stomach by oral sonde. […]
(6) Evaluation items: blood was collected over time, and the plasma concentration of the compound of the present invention was measured by LC/MS/MS.
(7) Statistical analysis: regarding the transition of the plasma concentration of the compound of the present invention, the area under the plasma concentration-time curve (AUC) was calculated by non-linear least squares program WinNonlin (registered trademark), and the bioavailability (BA) of the compound of the present invention was calculated from the AUCs of the oral administration group and intravenous administration group.

A further series is described as follows: Powder solubility test. The format is physicochemical. Conditions: pH 6.8, aqueous buffer, thermodynamic from solid, JP-2 solution, 37° C. As to the method: Appropriate quantity of the compound of the present invention was put in suitable containers. 200 μL of JP-1 solution (water was added to 2.0 g of sodium chloride and 7.0 mL of hydrochloric acid to reach 1000 mL), 200 μL of JP-2 solution (500 mL of water was added to 500 mL of phosphate buffer (pH 6.8)) or 20 mmol/L sodium taurocholate (TCA)/JP-2 solution (JP-2 solution was added to 1.08 g of TCA to reach 100 mL) was independently added to each container. When total amount was dissolved after adding the test reagent, the compound of the present invention was added appropriately. After sealing and shaking at 37° C. for 1 hour, solution is filtrated and 100 μL of methanol is added to 100 μL of each filtrate to dilute two-fold. The dilution rate is changed as necessary. After checking that there was no bubble and deposit, the container was sealed and shaken. The compound of the present invention was measured using HPLC by absolute calibration curve method.

Converted amounts (≈) assume the structure as drawn.

Chain of hERG channel (IKr) (Q12809 whole entry): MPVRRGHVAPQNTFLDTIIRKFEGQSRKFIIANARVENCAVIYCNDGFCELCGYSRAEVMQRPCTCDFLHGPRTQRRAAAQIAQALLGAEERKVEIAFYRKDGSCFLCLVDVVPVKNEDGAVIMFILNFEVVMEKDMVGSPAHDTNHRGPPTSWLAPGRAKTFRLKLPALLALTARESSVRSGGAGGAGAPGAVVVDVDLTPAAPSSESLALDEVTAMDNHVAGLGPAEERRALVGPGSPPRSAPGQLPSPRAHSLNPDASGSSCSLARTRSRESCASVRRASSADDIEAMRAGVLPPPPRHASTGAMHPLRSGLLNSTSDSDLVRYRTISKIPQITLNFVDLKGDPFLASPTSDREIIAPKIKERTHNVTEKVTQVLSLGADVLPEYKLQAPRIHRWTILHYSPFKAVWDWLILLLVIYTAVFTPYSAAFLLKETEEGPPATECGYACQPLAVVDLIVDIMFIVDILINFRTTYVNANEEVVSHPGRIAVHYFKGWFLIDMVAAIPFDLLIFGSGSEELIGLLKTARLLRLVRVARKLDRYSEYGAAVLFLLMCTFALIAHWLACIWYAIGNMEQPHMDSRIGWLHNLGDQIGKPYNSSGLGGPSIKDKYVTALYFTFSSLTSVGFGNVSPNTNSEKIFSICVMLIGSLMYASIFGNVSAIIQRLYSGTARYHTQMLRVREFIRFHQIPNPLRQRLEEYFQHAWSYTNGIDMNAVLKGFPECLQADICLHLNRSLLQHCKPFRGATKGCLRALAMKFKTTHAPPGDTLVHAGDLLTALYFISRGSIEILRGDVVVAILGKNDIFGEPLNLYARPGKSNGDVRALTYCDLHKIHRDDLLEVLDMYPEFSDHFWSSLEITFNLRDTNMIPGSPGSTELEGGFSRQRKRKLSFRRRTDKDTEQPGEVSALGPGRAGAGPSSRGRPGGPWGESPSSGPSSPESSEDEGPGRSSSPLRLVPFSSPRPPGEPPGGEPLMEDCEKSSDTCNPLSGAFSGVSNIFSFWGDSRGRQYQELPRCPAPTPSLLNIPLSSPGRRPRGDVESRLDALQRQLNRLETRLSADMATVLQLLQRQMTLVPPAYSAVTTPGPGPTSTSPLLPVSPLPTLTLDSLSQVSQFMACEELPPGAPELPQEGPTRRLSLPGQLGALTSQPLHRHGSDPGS
Chain of recombinant human MGAT2 (Q3SYC2 whole entry): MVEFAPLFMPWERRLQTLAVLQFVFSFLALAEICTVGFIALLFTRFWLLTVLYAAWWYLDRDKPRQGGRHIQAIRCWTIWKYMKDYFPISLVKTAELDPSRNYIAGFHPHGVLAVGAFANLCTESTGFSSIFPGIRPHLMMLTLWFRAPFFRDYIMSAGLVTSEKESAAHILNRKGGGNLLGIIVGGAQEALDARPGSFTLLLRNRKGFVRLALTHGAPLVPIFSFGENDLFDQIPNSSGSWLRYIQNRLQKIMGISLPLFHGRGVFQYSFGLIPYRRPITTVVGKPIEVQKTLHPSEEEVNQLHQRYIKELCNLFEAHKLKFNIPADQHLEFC

One may read the solubility as how much of the substance goes into solution per volume. High values mean much dissolved substance, low ones little dissolved substance. As usually defined, the inhibition is the percentage by which the read-out fell short of the control. Turning to `CS(=O)(=O)CC(=O)Nc1c2c(nn1CCCOC(F)(F)F)C[C@]1(CCc3cc(OCC(F)(F)F)ccc31)NC2=O` [Compound I-253], in series [1], the “Remaining rate (%)” value is 76.8%. This compound had a solubility at 16 h in series [2] of more than 50 µM. For the same compound, the inhibition at 10 min, 10 μmol/L at hERG channel (IKr) came to 6.9%.
In general, bioavailability refers to dose-corrected exposure relative to a reference, in per cent. Read a high bioavailability as good availability. `Cc1ccc(-n2nc3c(c2NC(=O)CS(C)(=O)=O)C(=O)N[C@](C)(c2ccc(OCC(F)(F)F)cc2F)C3)nc1` [II-94]: the IC50 at recombinant human MGAT2 stood at 3.81 nM. Further, in series [1], the “Remaining rate (%)” value turned out to be 98.4%. For the same compound, the solubility at 16 h in series [2] is more than 50 µM. In series [3], the bioavailability worked out at 73%. In addition, the concentration in solution in “Powder solubility test” (solubility at 1 h) came to 3.4 µM (≈ 1.94 µg/mL).

These data come from patent US11198695B2, “Fused ring derivative having MGAT-2 inhibitory activity” (Shionogi & Co., Ltd., priority 2017, dated 2021).
